Results from patent US20150272939A1, “Identification of Small Molecule Inhibitors of Jumonji AT-Rich Interactive Domain 1A (JARID1A) and 1B (JARID1B) Histone Demethylase” (Yale University, priority 2012, published 2015).
Read-outs that look alike come from different tables or passages of the source.

What was measured:
[1] = AlphaScreen counterscreen against bio-H3K4me2 peptide in the absence of enzyme (artifact signal); conditions: for Artifact Signal (percent): effect of the compound when incubated with bio-H3K4me2 peptide (counterscreen, no enzyme); for Artifact signal: effect of the compound when it is incubated with bio-H3K4me2 peptide: counterscreen, no enzyme;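 as to all read-outs here: counterscreen run without enzyme against bio-H3K4me2 peptide to remove false positive hits from the JARID1 demethylase AlphaScreen screen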
JARID1B = molecular target: T1, JARID1B (Homo sapiens, UniProt Q9UGL1); test: FLAG-JARID1B histone demethylase assay with AlphaScreen detection (HTS and dose response); assay type: biochemical; conditions: for inhibition at 20 µM: read-out: Inhibitory effect (percent);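 as to Assay Signal (percent): compound tested at 20 µM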;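 as to Assay − Artifact Signal (percent): compound tested at 20 µM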;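 as to all read-outs here: FLAG-tagged JARID1B at 4 nM acting on a biotinylated H3K4me3 peptide, demethylation read by AlphaScreen luminescence, with hits checked against bio-H3K4me2 without enzyme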
T1 construct: The FLAG tagged full length JARID1B enzyme was expressed in Sf21 insect cells using FLAG-JARID1B baculoviruses; FLAG (N); made in house; host or cells: Sf21 insect cells (baculovirus)

[2] = assay signal minus artifact signal
[3] = high-throughput screen, compound 20 μM, standard demethylase conditions (10 μM α-KG, 50 μM Fe (II))
[4] = validation of HTS actives, effect of compound in JARID1B AlphaScreen assay
[5] = validation of HTS actives, total signal before subtraction of artifact signal

T1 sequence (Q9UGL1 whole entry): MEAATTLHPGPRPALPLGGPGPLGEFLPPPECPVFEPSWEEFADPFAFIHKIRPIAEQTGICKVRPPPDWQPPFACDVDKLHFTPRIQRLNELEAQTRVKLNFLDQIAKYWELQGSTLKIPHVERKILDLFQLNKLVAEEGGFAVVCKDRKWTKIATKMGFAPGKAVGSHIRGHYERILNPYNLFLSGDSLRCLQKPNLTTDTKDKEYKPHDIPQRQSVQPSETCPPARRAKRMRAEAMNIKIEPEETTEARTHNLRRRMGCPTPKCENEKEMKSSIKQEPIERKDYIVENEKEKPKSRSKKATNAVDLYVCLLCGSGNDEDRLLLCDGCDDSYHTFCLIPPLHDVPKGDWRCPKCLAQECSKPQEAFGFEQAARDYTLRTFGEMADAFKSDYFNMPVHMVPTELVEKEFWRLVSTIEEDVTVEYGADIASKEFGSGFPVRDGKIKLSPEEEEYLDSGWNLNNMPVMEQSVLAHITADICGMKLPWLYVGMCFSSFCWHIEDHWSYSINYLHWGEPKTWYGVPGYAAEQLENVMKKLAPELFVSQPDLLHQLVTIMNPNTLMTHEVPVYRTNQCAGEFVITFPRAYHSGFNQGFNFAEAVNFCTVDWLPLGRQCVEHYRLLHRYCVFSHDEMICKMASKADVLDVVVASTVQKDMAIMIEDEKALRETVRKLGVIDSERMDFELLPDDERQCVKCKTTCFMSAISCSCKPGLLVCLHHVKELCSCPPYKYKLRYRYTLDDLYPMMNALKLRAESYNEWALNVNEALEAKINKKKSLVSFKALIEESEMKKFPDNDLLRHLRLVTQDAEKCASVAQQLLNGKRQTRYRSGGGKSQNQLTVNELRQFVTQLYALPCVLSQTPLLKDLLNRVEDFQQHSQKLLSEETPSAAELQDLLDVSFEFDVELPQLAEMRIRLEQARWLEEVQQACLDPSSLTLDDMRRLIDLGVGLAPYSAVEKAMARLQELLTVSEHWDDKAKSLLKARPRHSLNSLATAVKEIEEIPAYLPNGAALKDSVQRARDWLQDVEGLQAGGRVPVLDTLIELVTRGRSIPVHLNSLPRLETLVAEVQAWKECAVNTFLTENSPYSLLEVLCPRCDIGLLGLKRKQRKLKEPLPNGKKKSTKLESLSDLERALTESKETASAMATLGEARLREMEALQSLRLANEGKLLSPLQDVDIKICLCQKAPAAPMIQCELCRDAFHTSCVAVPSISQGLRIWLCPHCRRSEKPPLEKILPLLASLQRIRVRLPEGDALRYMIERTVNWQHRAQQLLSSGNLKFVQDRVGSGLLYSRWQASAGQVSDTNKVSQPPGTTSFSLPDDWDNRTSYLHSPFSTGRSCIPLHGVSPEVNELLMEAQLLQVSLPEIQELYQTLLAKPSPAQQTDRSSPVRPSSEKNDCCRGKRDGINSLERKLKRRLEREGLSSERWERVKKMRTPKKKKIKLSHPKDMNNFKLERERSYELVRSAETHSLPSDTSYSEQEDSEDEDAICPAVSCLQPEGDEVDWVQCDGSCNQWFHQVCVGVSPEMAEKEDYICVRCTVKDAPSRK

SMILES	Artifact Signal (percent) [1] [%]	Assay − Artifact Signal (percent) (JARID1B; [2]) [%]	inhibition at 20 µM (JARID1B; [3]) [%]	Assay Signal (percent) (JARID1B; [4]) [%]	Artifact signal: effect of the compound when it is incubated with bio-H3K4me2 peptide [1]	other results
Fc1ccccc1-c1nc2ncccc2o1 [YU172071]	–	–	37.3	–	−1.99	Validation result of HTS active: effect of the compound in the JARID1B AlphaScreen demethylase assay (JARID1B; [5]): 3.80
Cc1c2c(=O)n(-c3nc4ccccc4s3)[nH]c2cc(=O)n1CCN1CCOCC1 [YU172087]	−6.77	21.21	56.4	14.44	–	–
Oc1c(C(Nc2ccc(Cl)cc2)c2cccnc2)ccc2cccnc12 (stereo not shown) [YU172165]	28.76	14.24	42.3	43.01	–	–
Cc1cccc(NC(c2ccncc2)c2ccc3cccnc3c2O)c1 (stereo not shown) [YU172170]	48.19	16.90	70	65.09	–	–
COc1ccc(C)cc1NC(c1cccnc1)c1ccc2cccnc2c1O (stereo not shown) [YU172175]	36.93	11.16	48.5	48.09	–	–
Cc1cccc(NC(c2cccnc2)c2ccc3cccnc3c2O)n1 (stereo not shown) [YU172179]	53.31	10.43	58.1	63.74	–	–
Cc1noc2c1C(c1ccc(O)c(O)c1)C1=C(CCCC1=O)N2 (stereo not shown) [YU183529]	4.16	36.06	–	40.22	–	–
CCC(=O)Nc1ccc(N2CCC(C(N)=O)(N3CCCCC3)CC2)c(C(=O)O)c1 [YU208193]	16.13	11.50	46.1	27.63	–	–
CCCCC(=O)Nc1ccc(N2CCC(C(N)=O)(N3CCCCC3)CC2)c(C(=O)O)c1 [YU208194]	–	–	63.8	–	11.63	Validation result of HTS active: effect of the compound in the JARID1B AlphaScreen demethylase assay (JARID1B; [5]): 17.11
O=C(Nc1ccc(N2CCCC2)c(C(=O)O)c1)c1ccc(Br)cc1 [YU208200]	–	–	53	–	20.10	Validation result of HTS active: effect of the compound in the JARID1B AlphaScreen demethylase assay (JARID1B; [5]): 24.86
O=C(Nc1ccc(N2Cc3ccccc3OC(c3ccccc3)C2)c(C(=O)O)c1)c1ccccc1F (stereo not shown) [YU208213]	–	–	–	–	32.32	Validation result of HTS active: effect of the compound in the JARID1B AlphaScreen demethylase assay (JARID1B; [5]): 37.72
CC(=O)Nc1ccc(N(C)CCCc2c(C)nn(C)c2C)c(C(=O)O)c1 [YU208230]	–	–	38.5	–	17.72	Validation result of HTS active: effect of the compound in the JARID1B AlphaScreen demethylase assay (JARID1B; [5]): 24.45
CCCCC(=O)Nc1ccc(N(C)CCc2c(C)nn(C)c2C)c(C(=O)O)c1 [YU208232]	18.67	19.26	50.5	37.92	–	–
Cc1ccc(C(=O)Nc2cnc(N3CCN(c4ccccc4Cl)CC3)c(C(=O)O)c2)cc1 [YU208246]	−0.08	10.41	44.5	10.32	–	–
O=c1c(O[C@@H]2O[C@H](CO)[C@@H](O)[C@H](O)[C@H]2O)c(-c2ccc(O)c(O)c2)oc2cc(O)cc(O)c12 [YU221011, Isoquercitrin, reference compound]	15.17	36.99	45.1	52.16	–	–
O=c1c(O[C@@H]2O[C@H](CO)[C@H](O)[C@H](O)[C@H]2O)c(-c2ccc(O)c(O)c2)oc2cc(O)cc(O)c12 [YU221013, HYPEROSIDE, reference compound]	9.46	41.83	44.9	51.29	–	–
CCC1=C[C@H]2CN(C1)Cc1c([nH]c3ccccc13)[C@@](C(=O)OC)(c1cc3c(cc1OC)N(C)[C@H]1[C@@](O)(C(=O)OC)[C@H](OC(C)=O)[C@]4(CC)C=CC[N@]5CC[C@]31[C@@H]54)C2.O=C(O)C(O)C(O)C(=O)O [YU221030, V[…], reference compound]	18.13	–	–	–	–	Assay Signal (percent) (JARID1B): 38.77%; Assay − Artifact Signal (percent) (JARID1B): 20.64%; inhibition at 20 µM (JARID1B): 42.2%
CC[C@]1(O)C[C@H]2CN(CCc3c([nH]c4ccccc34)[C@@](C(=O)OC)(c3cc4c(cc3OC)N(C=O)[C@H]3[C@@](O)(C(=O)OC)[C@H](OC(C)=O)[C@]5(CC)C=CCN6CC[C@]43[C@@H]65)C2)C1.O=S(=O)(O)O [YU221071, VINCRISTINE SULFATE, reference compound]	–	–	–	–	−1.27	Inhibitory effect (percent) (JARID1B): 44.20%; Validation effect minus artifact signal (JARID1B): 1.86; Validation result of HTS active: effect of the compound in the JARID1B AlphaScreen demethylase assay (JARID1B): 0.59

The next lines start with results.

Artifact Signal (percent) [1] [%]	Assay − Artifact Signal (percent) (JARID1B; [2]) [%]	inhibition at 20 µM (JARID1B; [3]) [%]	Assay Signal (percent) (JARID1B; [4]) [%]	Artifact signal: effect of the compound when it is incubated with bio-H3K4me2 peptide [1]	SMILES	other results
20.42	73.02	96.8	93.44	–	COc1c(O)cc2c(c1O)[C@@H]1O[C@H](CO)[C@@H](O)[C@H](O)[C@H]1OC2=O [YU155621, BERGENIN, reference compound]	–
11.16	11.36	92.3	22.52	–	Cc1c2c(=O)n(-c3nc4ccccc4s3)[nH]c2cc(=O)n1Cc1ccc(C(=O)O)cc1 [YU172089]	–
36.24	11.14	56	47.38	–	Oc1c(C(Nc2ccccc2Cl)c2cccnc2)ccc2cccnc12 (stereo not shown) [YU172164]	–
–	–	37.1	–	37.50	CCOC(=O)c1ccc(NC(c2cccnc2)c2ccc3cccnc3c2O)cc1 (stereo not shown) [YU172168]	Validation result of HTS active: effect of the compound in the JARID1B AlphaScreen demethylase assay (JARID1B; [5]): 44.99
61.44	11.78	72.7	73.22	–	Cc1cccc(NC(c2cccnc2)c2ccc3cccnc3c2O)c1 (stereo not shown) [YU172169]	–
–	–	60.1	–	56.78	COC(=O)c1cccc(NC(c2cccnc2)c2ccc3cccnc3c2O)c1 (stereo not shown) [YU172172]	Validation result of HTS active: effect of the compound in the JARID1B AlphaScreen demethylase assay (JARID1B; [5]): 63.48
–	–	40	–	37.31	Cc1ccc(NC(c2cccnc2)c2ccc3cccnc3c2O)cc1C (stereo not shown) [YU172173]	Validation result of HTS active: effect of the compound in the JARID1B AlphaScreen demethylase assay (JARID1B; [5]): 44.79
37.93	8.53	72.3	46.45	–	Cc1cccc(NC(c2ccccn2)c2ccc3cccnc3c2O)n1 (stereo not shown) [YU172178]	–
−4.00	42.72	62.4	38.73	–	Cc1[nH]c2nc(C(F)(F)F)nn2c(=O)c1C [YU172199]	–
10.03	88.40	96.7	98.42	–	c1ccc(-c2nc3ccccn3c2Nc2ccc3c(c2)OCCO3)nc1 [YU172999]	–
3.56	37.18	83.1	42.73	–	Clc1ccc2nc(-c3ccccn3)c(Nc3ccc4c(c3)OCO4)n2c1 [YU173003]	–
0.87	48.80	94	49.67	–	Clc1ccc2nc(-c3ccccn3)c(Nc3ccc4c(c3)OCCO4)n2c1 [YU173004]	–
1.72	36.51	46.5	38.23	–	Cc1noc2c1C(c1ccc(O)c(O)c1)C1=C(CC(C)(C)CC1=O)N2 (stereo not shown) [YU185530]	–
–	–	52.9	–	8.81	CC(=O)Nc1ccc(N2CCC(C(N)=O)(N3CCCCC3)CC2)c(C(=O)O)c1 [YU208195]	Validation result of HTS active: effect of the compound in the JARID1B AlphaScreen demethylase assay (JARID1B; [5]): 14.20
32.96	17.19	63.4	50.16	–	CCC(=O)Nc1ccc(N2CCCC2)c(C(=O)O)c1 [YU208199]	–
–	–	43.4	–	20.21	CCC(=O)Nc1ccc(N(C)CCCc2c(C)nn(C)c2C)c(C(=O)O)c1 [YU208228]	Validation result of HTS active: effect of the compound in the JARID1B AlphaScreen demethylase assay (JARID1B; [5]): 24.80
26.96	9.53	50.2	36.49	–	O=C(Nc1ccc(N2CCC(c3ccccc3)C2)c(C(=O)O)c1)c1cccc(Cl)c1 (stereo not shown) [YU208239]	–
–	–	51.5	–	0.47	O=C(Nc1cnc(N2CCN(c3ccccc3Cl)CC2)c(C(=O)O)c1)c1ccc(F)cc1 [YU208247]	Validation result of HTS active: effect of the compound in the JARID1B AlphaScreen demethylase assay (JARID1B; [5]): 7.92
7.01	14.69	44.5	21.70	–	CCC(=O)Nc1cnc(N2CCN(c3ccc(Cl)cc3)CC2)c(C(=O)O)c1 [YU208250]	–
7.07	23.33	58.7	30.40	–	O=C1C=CC(=O)[C@@H](Br)[C@@H]1Br [YU221139]	–
